Measured values taken from publication PMC5634595, “Properties of halogenated and sulfonated porphyrins relevant for the selection of photosensitizers in anticancer and antimicrobial therapies” (PLoS ONE, 2017).

Experiments:
[1] = biological target: HSA (Homo sapiens, UniProt P02768); assay: Binding to HSA by fluorescence quenching (Stern-Volmer, Scatchard)
Experimental: The binding of the PS to HSA was studied by spectrofluorometry at room temperature. An aqueous (phosphate buffer saline, PBS) solution of HSA was titrated with varying concentrations of the respective porphyrin solutions. HSA was excited at 295 nm and fluorescence was recorded between 300 nm and 400 nm. The systematic lowering of HSA fluorescence with increasing photosensitizer concentrations was noted and used in the determination of the binding constants and the number of binding sites on HSA according to Scatchard equation. The changes in HSA fluorescence intensity were related to porphyrin concentrations by the Stern-Volmer relationship. The binding constant (Kb) of PS to lipoproteins was also determined using the spectroscopic titration method. The sets of steady-state emission spectra of PBS solutions with different concentrations of HDL and LDL, to which the porphyrin (5 μM) was added were measured. The fluorescence intensity of the dye increased upon its partitioning into the lipoproteins. To obtain Kb, F versus [L] data were plotted and fitted to by a nonlinear regression routine.

[2] = tested on: P. aeruginosa (ATCC19660); assay: Photodynamic inactivation of microorganisms, CFU; assay type: cell-based; conditions: PDI 10 J/cm^2, 420±20 nm, concentration not given
Experimental: (§1) The microorganisms used in PDI were: S. aureus (8325–4), E. faecalis (ATCC29212), E. coli (K12), P. aeruginosa (ATCC19660), S. marcescens (ATCC14756) and C. albicans (DAY286). The planctonic bacteria cells were cultured in brain heart infusion broth (Sigma-Aldrich) and LB Broth/Lennox (BioShop Lab Science Products) in an orbital incubator (37°C, 130 rpm), until the optical density reached 0.5, which corresponds to approximately 10^7 CFU per mL. The fungal yeasts were cultured in YPD Broth (BioShop) with overnight aeration at 30°C to reach ca. 10^6 CFU/mL. For PDI experiments cell suspensions of bacteria or fungal yeasts were incubated with various concentrations of the porphyrins at pH 7.4 (PBS) for 1 h in the dark at room temperature. Aliquots (1 mL) were transferred to a 12-well plate and illuminated with a blue light. We used blue-LED array (420±20 nm) to deliver a light dose of 10 J/cm^2 (measured with a power meter). Cells treated with photosensitizers in the dark were incubated covered with aluminum foil for the same time as the PDI groups (1 h). After illumination (or dark incubation) samples were shaken, diluted in PBS, mixed and plated (LB agar). Aliquots were taken from each well to determine the CFU value. Plates were streaked in triplicate and incubated for 12–36 h at 30 °C (for fungal yeasts) or 37 °C (for bacteria) in the dark to allow colony formation.

[3] = tested on: S. aureus (8325–4); assay: Photodynamic inactivation of microorganisms, CFU; assay type: cell-based; conditions: 20 μM, 10 min irradiation (10 J/cm^2, 420±20 nm)
Experimental: as §1

[4] = tested on: E. coli (K12); assay: Photodynamic inactivation of microorganisms, CFU; assay type: cell-based; conditions: PDI 10 J/cm^2, 420±20 nm, concentration not given
Experimental: as §1

[5] = Fluorescence emission and fluorescence quantum yield (comparative method); assay type: physicochemical; conditions: EtOH, TPP as standard
Experimental: Fluorescence emission spectra were recorded from 550 nm to 750 nm with excitation at Soret band (λ≈420 nm). The excitation and emission slits were both set to 8 nm and scanning speed to 50 nm/min. Fluorescence spectra were recorded with a Perkin Elmer Fluorescence Spectrometer LS 55. Determination of fluorescence quantum yields: ΦF of studied photosensitizers was determined using the comparative method according to the equation: ΦF=ΦFStd⋅FAStdn^2/FStdAnStd2, (1) where F and FStd are the areas under the fluorescence emission curves of the sample and the standard, A and AStd are the absorbance of the sample and the standard and n are the refractive indices of the solvent used for the sample and the standard, respectively. Commercially available tetraphenylporphyrin TPP (Std) (ΦF = 0.10 in toluene) was employed as the standard. The absorbance of the solutions at the excitation wavelength was in the range of 0.02. Singlet oxygen quantum yields were determined based on the relative phosphorescence emissions of singlet oxygen generated by a reference and by each one of the porphyrins, using a method described elsewhere. Briefly, a modified Applied Photophysics LKS.60 flash photolysis spectrometer with a Hamamatsu NIR photomultiplier for detection and HP Infinium (500 MHz, 1GSas^-1) or Tektronix DPO 7254 (2.5 GHz, 40GSas^-1) oscilloscopes were used. The adaptation of this spectrometer allowed for the detection of singlet oxygen phosphorescence at room temperature. This emission was detected using a Hamamatsu R5509–42 photomultiplier, cooled to 193 K in a liquid nitrogen chamber. […] The modification of the spectrometer for time-resolved singlet oxygen phosphorescence measurements involved the interposition of a Melles Griot cold mirror (03MCS005), which reflects more than 99% of the incident light in the 400–700 nm range, and of a Scotch RG665 filter. A 600 line diffraction grating was mounted in place of a standard one. […] Solutions of photosensitizers were prepared with matched absorbances close to 0.2 at 355 nm. […]

Sequence of HSA (P02768 25-609): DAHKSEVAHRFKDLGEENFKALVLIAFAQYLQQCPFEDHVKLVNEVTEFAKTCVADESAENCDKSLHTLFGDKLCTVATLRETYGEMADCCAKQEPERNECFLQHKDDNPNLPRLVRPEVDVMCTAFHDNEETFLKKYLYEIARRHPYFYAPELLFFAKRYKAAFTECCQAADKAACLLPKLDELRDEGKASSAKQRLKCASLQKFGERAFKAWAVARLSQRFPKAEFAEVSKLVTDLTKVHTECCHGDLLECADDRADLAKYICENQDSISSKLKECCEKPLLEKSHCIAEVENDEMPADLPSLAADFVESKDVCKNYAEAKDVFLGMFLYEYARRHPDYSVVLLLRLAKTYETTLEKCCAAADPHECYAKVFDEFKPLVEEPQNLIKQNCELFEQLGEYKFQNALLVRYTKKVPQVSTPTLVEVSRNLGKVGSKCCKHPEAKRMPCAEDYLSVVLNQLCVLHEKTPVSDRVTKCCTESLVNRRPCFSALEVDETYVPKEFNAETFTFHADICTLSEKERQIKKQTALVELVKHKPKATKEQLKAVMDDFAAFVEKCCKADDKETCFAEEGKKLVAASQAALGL

Structure (SMILES): O=S(=O)(O)c1ccc(F)c(-c2c3nc(c(-c4c(F)ccc(S(=O)(=O)O)c4F)c4ccc([nH]4)c(-c4c(F)ccc(S(=O)(=O)O)c4F)c4nc(c(-c5c(F)ccc(S(=O)(=O)O)c5F)c5ccc2[nH]5)C=C4)C=C3)c1F [F2POH, 5,10,15,20-tetrakis(2,6-difluoro-3-sulfophenyl)porphyrin]
- KSV (Stern-Volmer constant), HSA ([1]; HSA fluorescence quenching, PBS, room temperature): 2.24 10^5M^-1
- n (number of binding sites), HSA ([1]; Scatchard analysis): 1
- Decrease in survival / bacteria CFU killing [2]: 1.5–2 logs
- Reduction in colony forming units (CFU) [3]: 6 logs
- Decrease in survival [4]: 1.5–2 logs
- Fluorescence quantum yield ΦF [5]: 0.040
